Assay results published in US6410685B1, “Antistress agents and functional foods” (Calpis Co., Ltd., priority 1997, dated 2002).
Marks after values point to notes of the source that are not given here.

Tested on: Wister rats exposed to cold stress
Experiment: Blood pressure by tail-cuff method in rats exposed to cold stress
Type: in vivo, rat
Details: Example 5, day 10, 3 mg/kg body weight of single tripeptide oral
Source text: 24 male Wister rats (body weight about 300 g) were preliminarily fed for one week. During the preliminary feeding period and the experimental period, the rats were restrictively fed with commercial diet (trade name “CE-2” manufactured by NIHON CREA CO.), and allowed to take water ad libitum.
After the preliminary feeding period, the rats were divided into three groups (eight rats each), namely, (1) the group not exposed to stress and given saline, (2) the group exposed to stress and given saline, and (3) the group exposed to stress, and given VPP and IPP. The animals of groups (2) and (3) were exposed to stress for 9 days by putting them in a cold room (4° C.) for 4 hours per one day.
On the day 10, rats of groups (1) and (2) were given 1 ml of saline, and rats of group (3) were given 1 ml of saline containing 3 mg/kg body weight each of IPP and VPP synthesized in Example 3, by forcible administration into stomach via an oral sonde. After the administration, the rats of groups (2) and (3) were exposed to cold stress for 4 hours. Two hours after finishing the stress loading, blood pressure of the rats in each group was measured by tail-cuff method using a non-warming, non-invasive rat sphygmomanometer (Type PE-300, manufactured by CSI CO.).
After the preliminary feeding period, the rats were divided into three groups (eight rats each), namely, (1) the group given saline, (2) the group given VPP, and (3) the group given IPP. The rats of groups (1) to (3) were exposed to stress for 9 days by, as in Example 4, putting them in a cold room (4° C.) for 4 hours per one day.
On the day 10, rats of group (1) were given 1 ml of saline, and rats of group (2) and (3) were given 1 ml of saline containing 3 mg/kg body weight of IPP or 3 mg/kg body weight of VPP, respectively, synthesized in Example 3, by forcible administration into stomach via an oral sonde. After the administration, the rats of groups (1) to (3) were exposed to cold stress for 4 hours, and blood pressure was measured as in Example 4.
The test was carried out in the same way as in Example 5 except that the group (1) rats were given 2 ml of saline, and the rats in group (2) were given 5 ml/kg body weight of the fermented milk obtained in Example 1, and the rats in group (3) were given 2 ml of saline containing 150 mg/kg of the purified tripeptide fraction powders obtained in Example 2, respectively. After the administration of the samples and exposure to stress, the blood pressure of each rat was measured.

Substance: Val-Pro-Pro [VPP]
- Diastolic Blood Pressure: 101* mmHg
- Systolic Blood Pressure: 131* mmHg

Substance: Ile-Pro-Pro [IPP]
- Diastolic Blood Pressure: 102* mmHg
- Systolic Blood Pressure: 130* mmHg
